Results published in US7169756B2, “Streptogramin antibiotics” (priority 2005, dated 2007).
Bridge positions count the residues as written; N and C are the ends. Square brackets hold non-standard residues; d marks the D form. Peptide text beside a SMILES is read from it. * marks the point of attachment. Picolinoyl(3-OH) = O=C(c1ncccc1O)*; Phg = N[CH](C(=O)O)c1ccccc1; Abu = CC[CH](N)C(=O)O; Dap = NC[CH](N)C(=O)O

How the values were obtained:
E. coli BAS901/pUCVgb = assay: disk assay, zone of growth inhibition; type: cell-based, Escherichia coli; settings: Vgb constitutively expressed
Description: (§1) A hyperpermeable E. coli strain, E. coli BAS901, harboring a plasmid constitutively expressing Vgb was created for in vivo studies. The plasmids pVGB, described previously in [14], and […] were digested with Xbal and BamHI, to yield an approximately 1 kb fragment containing a ribosomal binding site upstream of vgb, and linearized pUC19 backbone, respectively. The vgb fragment was then subcloned into the linearized pUC19 backbone downstream of pLac yielding pUC19-VGB. Both pUC19-VGB and pUC19 were transformed E. coli BAS901.
(§2) The antibiotic activity of the peptides synthesized in this study was initially assayed using a disk assay where samples were applied to sterile paper disks placed on a fresh lawn of bacterial culture on appropriate agar plates as required by the organism. These were then incubated for 16 hr at 37° C. and the zone of growth inhibition surrounding the disks recorded. For quantitative assessment of antibiotic activity in liquid culture, the minimal inhibitory concentration (MIC) of peptides was determined by serial dilution studies. The peptides and standard antibiotics were dissolved in DMSO and the final concentration of DMSO in the liquid cultures was 5%. Both S. aureus RN4220 and E. coli BAS901 were able to grow efficiently at this level of DMSO.
(§3) Crude material from the initial synthesis reactions was used to test the potential of the analogues as antibiotics in susceptibility assays where a solution of the compound was placed on a paper disk on a lawn of bacteria. As described above, E. coli BAS901 is deficient in the Imp/OstA protein, an outer membrane protein, involved in cell envelope biogenesis (1, 5). […] The antibiotic activity of the peptides synthesized in this study was initially assayed using a disk assay where samples were applied to sterile paper disks placed on a fresh lawn of bacterial culture on Tryptic Soya, Luria Broth, or Brain Heart Infusion Agar plates. These were then incubated for 16 hrs at 37° C. and the zone of growth inhibition surrounding the disks recorded.

E. coli BAS901/pUC19 = assay: disk assay, zone of growth inhibition; type: cell-based, Escherichia coli
Description: as §1, §2, §3

in vitro translation = assay: In Vitro Translation Assay; type: biochemical; settings: FIG. 6; 15 min preincubation, 1 hr at 37° C., 5% DMSO; concentration not given
Protocol: Inhibition of translation was monitored using an ActivePro In Vitro Translation Kit from Ambion. Briefly, a reaction mixture was prepared as per the manufacturer's instructions that contained all of the constituents necessary (including [^35S]-methionine) except for DNA template. These mixtures were then preincubated for 15 min at room temperature in the presence or absence of various antibiotics. Subsequent to the preincubation period, a control template containing a chloramphenicol acetyltransferase gene under control of a bacteriophage T7 promoter was added and the reaction carried out for 1 hr at 37° C. Due to the insoluble nature of some of the antibiotics, the final DMSO concentration in each reaction including controls was maintained at 5% (v/v). Aliquots were taken after 1 hr, and separated on SDS polyacrylamide gels. The efficiency of translation of ^35S-labeled […] was analyzed and quantified using a Typhoon 9200 variable mode imager (Image-Quant 5.2 software).

Human red blood cells = assay: Hemolysis Assay; type: cell-based; settings: 3 and 9 hr at 37° C., A412 of supernatant, gramicidin 30 μg/ml
Protocol: Human red blood cells were freshly harvested, washed with 0.85% saline solution with 5 mM EDTA and resuspended in the same solution to an A412 of 0.6. The hemolysis assay was performed in 1.5 ml Eppendorf tubes with the addition of either 5 in DMSO, saline, gramicidin (final concentration 30 μg/ml), or DMSO (5% final), for both 3 and 9 hr at 37° C. with occasion gentle mixing. The mixtures were then centrifuged and the A412 of the supernatant measured.

Row | Compound | inhibition of in vitro translation (in vitro translation) | also measured
1 | CCC1NC(=O)C(NC(=O)c2ncccc2O)CNC(=O)C(c2ccccc2)NC(=O)C2CCCN2C(=O)C(Cc2ccccc2)NC(=O)C2CCCN2C1=O (stereo not drawn) [Compound 8] ({Picolinoyl(3-OH)}-[Dap][Abu]PFP[Phg]; lactam 1-C; configuration not given here) |  | Zone of Inhibition (E. coli BAS901/pUCVgb): n.i.; Zone of Inhibition (E. coli BAS901/pUC19): no antibacterial activity and n.i.
2 | O=C(N[C@H](CO)[C@H](O)c1ccc([N+](=O)[O-])cc1)C(Cl)Cl [chloramphenicol] | did block | 
3 | gramicidin S |  | hemolytic activity (Human red blood cells): lysed cells rapidly
4 | CCN(CC)CCS(=O)(=O)[C@@H]1CCN2C(=O)c3coc(n3)CC(=O)C[C@H](O)/C=C(C)/C=C/CNC(=O)/C=C/[C@@H](C)[C@@H](C(C)C)OC(=O)[C@@H]12 [dalfopristin] | did block | 
5 | CC[C@H]1OC(=O)[C@H](C)[C@@H](O[C@H]2C[C@@](C)(OC)[C@@H](O)[C@H](C)O2)[C@H](C)[C@@H](O[C@@H]2O[C@H](C)C[C@H](N(C)C)[C@H]2O)[C@](C)(O)C[C@@H](C)C(=O)[C@H](C)[C@@H](O)[C@]1(C)O [erythromycin] | did block | 
